The text below walks through data of PubChem BioAssay (NCI).

Among the test systems are A498 renal; SNB-75 CNS; LOX IMVI melanoma; SF-539 CNS; SF-268 CNS; UACC-62 melanoma; OVCAR-8 ovarian; MCF7 breast; NCI-H23 lung; CCRF-CEM leukemia.
Holding throughout (assay): NCI-60 cell line screen, 48 h

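Compound exposure: 48 hours, 5 concentrations, 96-well plates. Definition used: TGI = concentration required for complete inhibition of growth.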

`CCOC(=O)Cc1c(C(=O)OCC)[n+](=O)c2cc(Cl)c(Cl)cc2n1[O-]`: the TGI in the experiment on A498 renal worked out at 6.14 µM; with SNB-75 CNS, 4.63 µM; with LOX IMVI melanoma, 4.65 µM; in the experiment with SF-539 CNS, 5.44 µM; in the experiment with SF-268 CNS it was 7.87 µM; in the experiment with UACC-62 melanoma, 5.45 µM. For the same compound, the TGI in the experiment on OVCAR-8 ovarian was 6.2 µM; with MCF7 breast, 13.3 µM; in the experiment on NCI-H23 lung, 5.49 µM; in the experiment with CCRF-CEM leukemia it was 6.29 µM.
As to `CCN(CC)c1c(C(C)(C)C)c(=O)n2ccsc2c1OC(C)=O`, the TGI was 33.6 µM with A498 renal; 31 µM in the experiment on SNB-75 CNS; 31.4 µM in the experiment on LOX IMVI melanoma; 33.3 µM with SF-539 CNS; 30.1 µM with SF-268 CNS; 34.5 µM in the experiment with UACC-62 melanoma. Also, the TGI in the experiment with OVCAR-8 ovarian was 29.1 µM; in the experiment on MCF7 breast it was 28.9 µM; in the experiment on NCI-H23 lung it was 30.7 µM; in the experiment with CCRF-CEM leukemia, more than 100 µM.
Consider `Cc1nn2c(=O)c([N+](=O)[O-])c(/C=C/c3ccc(F)cc3)nc2s1`, for which the TGI is 35.6 µM with A498 renal; 31.3 µM in the experiment on SNB-75 CNS; 9.19 µM in the experiment with LOX IMVI melanoma; 17.9 µM in the experiment with SF-539 CNS; 26.2 µM in the experiment with SF-268 CNS; 17.5 µM in the experiment with UACC-62 melanoma. For the same compound, the TGI worked out at 16 µM in the experiment on OVCAR-8 ovarian, 13.3 µM in the experiment with MCF7 breast, 23.5 µM in the experiment on NCI-H23 lung and 23.5 µM in the experiment on CCRF-CEM leukemia.
With `CCOC(=O)[C@@]12C[C@](/C=C/OC)(O[Si](C)(C)C)[C@@]13c1cc(OC)c(OC)cc1CCN3C(=O)C2=O`, the TGI in the experiment with A498 renal, in the experiment with SNB-75 CNS, with LOX IMVI melanoma, in the experiment on SF-539 CNS, with SF-268 CNS and in the experiment on UACC-62 melanoma was more than 100 µM throughout. Besides, the TGI in the experiment with OVCAR-8 ovarian, in the experiment on MCF7 breast, in the experiment on NCI-H23 lung and in the experiment with CCRF-CEM leukemia was more than 100 µM in each case.
Turning to `CCCOC(=O)c1cc(O)c(O)c(O)c1`, the TGI with A498 renal is more than 100 µM; in the experiment on SNB-75 CNS, more than 100 µM; in the experiment on LOX IMVI melanoma, 30.8 µM; with SF-539 CNS it was 70.9 µM; in the experiment with SF-268 CNS, more than 100 µM; with UACC-62 melanoma, more than 100 µM. Moreover, the TGI in the experiment with OVCAR-8 ovarian, in the experiment on MCF7 breast, with NCI-H23 lung and in the experiment with CCRF-CEM leukemia was more than 100 µM throughout.
Take `CC1(C)N=C(C(N)=O)c2[nH]cnc2N1`: the TGI with A498 renal, in the experiment on SNB-75 CNS, with LOX IMVI melanoma, with SF-539 CNS, in the experiment with SF-268 CNS and in the experiment with UACC-62 melanoma was more than 100 µM each time. Further, the TGI in the experiment on OVCAR-8 ovarian, with MCF7 breast, with NCI-H23 lung and in the experiment on CCRF-CEM leukemia was more than 100 µM in each case.
For the compound `Cc1nc2ccc(NCCN(C)C)c3c(=O)c4ccccc4n1c23`, the TGI turned out to be 12.1 µM with A498 renal; 17.8 µM with SNB-75 CNS; 2.96 µM with LOX IMVI melanoma; 16 µM in the experiment with SF-539 CNS; 20.2 µM with SF-268 CNS; 20.2 µM with UACC-62 melanoma. For the same compound, the TGI was found to be 10.1 µM in the experiment on OVCAR-8 ovarian, 23.3 µM in the experiment on MCF7 breast, 9.94 µM in the experiment with NCI-H23 lung and 47.5 µM in the experiment on CCRF-CEM leukemia.
As to `COC(=O)[C@@H]1c2c(oc3cc(CO)cc(O)c3c2=O)C=C[C@H]1O`, the TGI amounted to 20 µM with A498 renal; 31.7 µM with SNB-75 CNS; 12.4 µM in the experiment with LOX IMVI melanoma; 9.41 µM in the experiment on SF-539 CNS; 21.7 µM in the experiment on SF-268 CNS; 25 µM with UACC-62 melanoma. The TGI in the experiment on OVCAR-8 ovarian is 21.7 µM; in the experiment with MCF7 breast, 12 µM; in the experiment with NCI-H23 lung, 36 µM; with CCRF-CEM leukemia it was 25 µM.
For the compound `O=c1cc(NNc2cccc3ccccc23)[nH]c(=O)[nH]1`, the TGI in the experiment on A498 renal was 35.7 µM; in the experiment on SNB-75 CNS, 31.4 µM; in the experiment with LOX IMVI melanoma it was 26.7 µM; in the experiment on SF-539 CNS, 29 µM; in the experiment with SF-268 CNS, 31 µM; with UACC-62 melanoma, 31.8 µM. Besides, the TGI with OVCAR-8 ovarian came to 36.8 µM; in the experiment with MCF7 breast it was 4.74 µM; in the experiment with NCI-H23 lung, 28.9 µM; with CCRF-CEM leukemia, 81.9 µM.
On to `NC1=Nc2cc(C(F)(F)F)ccc2Sc2nc3ccccc3n21`, for which the TGI is more than 100 µM with A498 renal; 71.2 µM in the experiment on SNB-75 CNS; more than 100 µM in the experiment on LOX IMVI melanoma; more than 100 µM with SF-539 CNS; more than 100 µM in the experiment on SF-268 CNS; more than 100 µM in the experiment with UACC-62 melanoma. The TGI in the experiment with OVCAR-8 ovarian was more than 100 µM; in the experiment with MCF7 breast, more than 100 µM; with NCI-H23 lung, more than 100 µM; in the experiment with CCRF-CEM leukemia, more than 24.8 µM.
`COCN1C(=O)[C@@H]2CCCN2C(=O)c2ccc(N)cc21`: the TGI with A498 renal, with SNB-75 CNS, with LOX IMVI melanoma, in the experiment with SF-539 CNS, in the experiment on SF-268 CNS and with UACC-62 melanoma was more than 100 µM each time. For the same compound, the TGI in the experiment on OVCAR-8 ovarian, in the experiment with MCF7 breast, in the experiment with NCI-H23 lung and with CCRF-CEM leukemia was more than 100 µM throughout.
As to `CC(=O)c1csc2c1C(=O)c1ccccc1C2=O`, the TGI in the experiment with A498 renal was more than 100 µM; in the experiment with SNB-75 CNS, 3.11 µM; in the experiment with LOX IMVI melanoma, 31.3 µM; in the experiment on SF-539 CNS it was 5.65 µM; in the experiment on SF-268 CNS, 12.9 µM; in the experiment on UACC-62 melanoma, 3.73 µM. Also, the TGI stood at 7.11 µM in the experiment on OVCAR-8 ovarian, 5.22 µM with MCF7 breast, 3.59 µM in the experiment with NCI-H23 lung and 4.01 µM in the experiment with CCRF-CEM leukemia.
